Measurements reported in paper PMC7756582, “Prodrugs of γ‐Alkyl‐Modified Nucleoside Triphosphates: Improved Inhibition of HIV Reverse Transcriptase” (Angewandte Chemie (International Ed. in English), 2020).

Experiments:
HIV-2(ROD) [1] = assay: Anti-HIV activity assay, HIV-2-infected thymidine-kinase-deficient CEM/TK- cell cultures; format: cell-based; details: Human immunodeficiency virus 2, CEM-TK(-), read-out: EC50 CEM/TK− HIV-2, thymidine-kinase-deficient CEM/TK− cells, HIV-2; mean±SD, n=2-3
Experimental: (§1) γ‐(AB,alkyl)‐d4TTP prodrugs 6 and the γ‐alkyl‐d4TTPs 7 were evaluated for their ability to inhibit the replication of HIV in HIV‐1‐ or HIV‐2‐infected wild‐type CEM/0 as well as mutant thymidine‐kinase‐deficient CEM cell cultures (CEM/TK^−). For comparison, two TriPPPro derivatives 5 were also included in this assay.
(§2) Anti-HIV activity assay: Inhibition of HIV-1(IIIB)- and HIV-2(ROD)-induced cytopathicity in wild-type CEM/0 and thymidine kinase-deficient CEM/TK- cell cultures was measured in microtiter 96-well plates containing ~3·105 CEM cells/mL infected with 100 CCID50 of HIV per milliliter and containing appropriate dilutions of the test compounds. After 4−5 days of incubation at 37 °C in a CO2-controlled humidified atmosphere, CEM giant (syncytium) cell formation was examined microscopically. […]
(§3) was defined as the compound concentration required to inhibit HIV-induced giant cell formation by 50%. […]
(§4) The result was visualized by fluorescence imaging. […]
as §4

[2] = Chemical hydrolysis in aqueous phosphate buffer (PBS, pH 7.3); format: physicochemical; details: aqueous 25 mM phosphate buffer, pH 7.3, 37 °C; removal of AB group; n.h. = no hydrolysis observed through cleavage of AB-mask
Experimental: γ‐(AB,alkyl)‐NTP prodrugs 6 and γ‐alkyl‐NTPs 7 were incubated in aqueous phosphate buffer (PBS, 25 mM, pH 7.3), or were exposed to pig liver esterase (PLE) in phosphate buffer (PBS) and to human CD4^+ T‐lymphocyte cell extracts to study their stability and the product distribution. The hydrolysis mixtures were analyzed by means of analytical rp‐18‐HPLC. The calculated half‐lives of prodrugs 6 (Table 1, t 1/2) reflect the removal of the bioreversible AB group to yield γ‐alkyl‐NTPs 7. Possible hydrolysis pathways and products are summarized in Scheme 4.
As hydrolysis products, a predominant formation of γ‐alkyl‐d4TTPs 7 and a very small amount of d4TDP […] was detected (approximately 3 %). After consumption of the starting material, no further increase of d4TDP concentration was observed. This supports the hypothesis that only the double‐γ‐esterified d4TTP prodrugs 6 were prone to a bond breakage between the γ‐ and β‐phosphate. […] In contrast to previous studies with TriPPPro‐NTPs 5 containing a second cleavable mask (first generation NTP prodrugs),[ ^23 , ^24 , ^25 ] no d4TTP was detected in these studies using 6 or 7. A side reaction occurred during the studies using compounds 7 that led to the formation of thymine by the cleavage of the glycosidic bond as reported before.[ ^19 , ^22 ]
(§5) ProLab 300 from Schott Co.. Thermomixer: Eppendorf Thermomixer 5436 and CellMedia Thermoschüttler basic were used. […]
Chemical hydrolysis of prodrugs of γ-(AB,alkyl) d4TTP 6 as well as the γ-alkyl-NTPs 7,15:
Stock solutions (50mM in DMSO-d6) of compounds 6,7 were prepared. After dilution of 11 µL stock solution with 100 µL milliQ water and 189 µL DMSO-d6 to 1.9mM hydrolysis solutions the reaction was started by addition of 300 µL phosphate buffer saline (PBS, 50mM, pH 7.3). The solution was incubated at 37 C in a thermomixer. An initial aliquot (25 µL) was taken directly and analyzed by analytical HPLC at 265-266 nm. Further aliquots were taken for monitoring the kinetic hydrolysis. The exponential decay curves (pseudo-first order) based on absolute integral values were calculated with commercially available software (OriginPro 9.0G) and yielded the half-lives t1/2 of the prodrugs via one determination. […]
The calculation of t1/2 was performed analogously to that for the chemical hydrolysis studies.
(§6) Preparation of cell extracts: Human CD4+ T-lymphocyte CEM cells were grown in RPMI-1640-based cell culture medium to a final density of ~3·10^6 cells/ml. Then, cells were centrifuged for 10 min at 1,250 rpm at 4 °C, washed twice with cold PBS, and the pellet was re-suspended at 10^8 cells/ml and sonicated (Hielscher Ultrasound Techn., 100% amplitude, 3·times for 10 sec) to destroy cell integrity. The resulting cell suspension was then centrifuged at 10,000 rpm to remove cell debris, and the supernatant divided in aliquots before being frozen at -80 C and used.
(1 picture or pasted object on this page, not shown here)

[3] = Enzyme-catalyzed hydrolysis in human CD4+ T-lymphocyte CEM cell extracts; format: in vitro ADME; details: CEM/0 cell extracts (CD4+ T-lymphocytes); human CD4+ T-lymphocyte CEM cell extracts, 37 °C; read-out: CEM/0 cell extracts t 1/2 (converted)
Experimental: The stability of prodrugs 6 and the γ‐alkyl‐NTPs 7 was further investigated in human CD4 ^+ T‐lymphocyte CEM cell extracts. […] Thus, an enzymatic cleavage reaction took place. Half‐lives as low as 0.4 h (6 az) to 5.2 h (6 dz) were determined. […] This is in accordance to our previous results for the DiPPro‐[ ^17 , ^18 ] or the TriPPPro‐compounds 5.[ ^22 , ^23 ] In all cases we observed the predominant formation of γ‐alkyl‐d4TTPs 7 and d4TDP 2 d in very low concentration (Figure 2 B) but no NTP formation was detected, in contrast to the studies using the previously described TriPPPro compounds 5.[ ^23 , ^24 ] However, the difference to the compounds bearing long lipophilic acyl groups was not very pronounced (2‐ to 3‐fold). In the case of γ‐(AB‐C4,alkyl‐C18)‐d4TTP 6 cz, γ‐C18‐d4TTP 7 z was detected as the main product. After 8 h incubation, the ratio of γ‐C18‐d4TTP 7 z and d4TDP 2 d was 5:1. This was in sharp contrast to the studies performed with TriPPPro compounds 5.[ ^23 , ^24 ] There, it was almost impossible to detect significant concentrations of d4TTP due to its fast dephosphorylation to form first d4TDP and finally d4TMP 2 m. […] The formation of thymine or d4TTP 2 t from γ‐C18‐d4TTP 7 z was not detected (Supporting Information, Figure SI2).
as §5
Enzyme-catalyzed hydrolysis of γ-(AB,alkyl)-d4TTPs 6, γ-alkyl-d4TTPs 7,15 and TriPPPros 5 in CEM cell extracts:
18 µL of the appropriate 50 mM DMSO-d6 stock solution was diluted to 6.0 mM hydrolysis solution by addition of 132.0 µL DMSO-d6.
7-10 different samples including 10 µL water and 10 µL hydrolysis solution were prepared in 2 mL Eppendorf® vials. The reaction was started by addition of 50 µL human CEM cell extract and the mixture was incubated at 37 °C for different time periods. The reactions were stopped by addition of 150 μL MeOH. The solution was kept on ice for 5 min followed by centrifugation for 5 min (13000 rpm).
The supernatants were filtered (Chromafil® RC-20/15 MS, 0.2 μm) and stored in liquid nitrogen. When testing, the samples were defrosted and injection volume with 80 μL was used for HPLC analysis. The calculation of t1/2 was performed analogously to that for the chemical hydrolysis studies.
as §6

[4] = Cytotoxicity: inhibition of CD4+ T-cell (CEM) proliferation; format: cell-based; details: human, CEM/0 cells (CD4+ T-cells), 50 % cytostatic concentration, mean±SD, n=2-3
HIV-1(IIIB) = assay: Anti-HIV activity assay, HIV-1-infected wild-type CEM/0 cell cultures; format: cell-based; details: Human immunodeficiency virus 1, IIIB, CCRF-CEM, read-out: EC50 CEM/0 HIV-1
Experimental: as §1, §2, §3, §4, §4

HIV-2(ROD) [5] = assay: Anti-HIV activity assay, HIV-2-infected wild-type CEM/0 cell cultures; format: cell-based; details: Human immunodeficiency virus 2, CCRF-CEM, read-out: EC50 CEM/0 HIV-2
Experimental: as §1, §2, §3, §4, §4

[6] = target: T1, HIV reverse transcriptase (RT) (Human immunodeficiency virus type 1 group M subtype B, UniProt P03366); assay: Primer extension assay with HIV-RT; format: biochemical, HIV-1; details: incubation 10, 20, 40 and 60 min; conversion of primer to n+1 product
T1 construct: reverse transcriptase (RT; an HIV‐encoded RNA‐dependent DNA polymerase); purchased Roboklon
Experimental: Primer-extension reactions:
HIV-RT and human DNA polymerase β and γ were obtained from Roboklon, human DNA polymerase α was obtained from Chimerx.
The primers and templates were purchased from Life Technologies and Microsynth. The fluorescent labeled primer was purchased
from Metabion and Microsynth. The gels were prepared with the size of 450mm×200mm×0.4mm according to the electrophoresis
5’-FITC and 5’-Cy3 labeled Primer-sequence:
The primer extension assays were performed under the following conditions:
FITC and Cy3 labeled primer extension assay:
1) Hybridization: After 5 min incubation at 95 °C in 20 mM Tris-HCl (pH 7.6) and 50 mM NaCl, the hybridization/annealing of the
primer to the template strand was achieved by a cooling phase from 95 °C to […] lasted more than 2 hours. […]
The assays were separated using a denaturating PAGE (15%). The result was visualized by fluorescence imaging. […]
as §4, §4

**Q.** Which EC50 (HIV-2(ROD) [1]) does the source give for CCCCCCCCCCCOP(=O)(O)OP(=O)(O)OP(=O)(O)OCC1C=CC(n2cc(C)c(=O)[nH]c2=O)O1 (stereo not shown) [7 x, γ‐C11‐d4TTP] here?
**A.** The EC50 was 16 ± 5 µM.

**Q.** What about the “PBS pH 7.3 t 1/2” value [2] of the same compound?
**A.** The value was “n.h.^[c]”.

**Q.** And the half-life at 0.86 mM [3]?
**A.** The half-life at 0.86 mM was over 30 h.

**Q.** What about the CC50 [4] of the same compound?
**A.** Its CC50 is 78 ± 10 µM.

**Q.** And the EC50 (HIV-1(IIIB))?
**A.** The EC50 was 0.89 ± 0.28 µM.

**Q.** What about the EC50 (HIV-2(ROD) [5]) of the same compound?
**A.** Its EC50 is 0.26 ± 0.083 µM.

**Q.** What about the “comparison of substrate properties for HIV-RT” value [6] of the same compound?
**A.** Its value is “better substrates”.
